Like-named read-outs stand apart in the source and are kept apart here.
Experiments:
Type in all cases: cell-based
human TLR8 = target: T1, human TLR8 (Homo sapiens, UniProt Q9NR97); assay: TLR8 inhibition reporter assay (HEK-Blue cells, secreted embryonic alkaline phosphatase reporter); conditions: HEK-Blue cells overexpressing human TLR8, stimulated with R848 15.9 μM; read-out: TLR 8 IC50
T1 construct: host or cells: HEK-Blue cells (HEK293-derived reporter line)
T1 sequence (Q9NR97 27-1041): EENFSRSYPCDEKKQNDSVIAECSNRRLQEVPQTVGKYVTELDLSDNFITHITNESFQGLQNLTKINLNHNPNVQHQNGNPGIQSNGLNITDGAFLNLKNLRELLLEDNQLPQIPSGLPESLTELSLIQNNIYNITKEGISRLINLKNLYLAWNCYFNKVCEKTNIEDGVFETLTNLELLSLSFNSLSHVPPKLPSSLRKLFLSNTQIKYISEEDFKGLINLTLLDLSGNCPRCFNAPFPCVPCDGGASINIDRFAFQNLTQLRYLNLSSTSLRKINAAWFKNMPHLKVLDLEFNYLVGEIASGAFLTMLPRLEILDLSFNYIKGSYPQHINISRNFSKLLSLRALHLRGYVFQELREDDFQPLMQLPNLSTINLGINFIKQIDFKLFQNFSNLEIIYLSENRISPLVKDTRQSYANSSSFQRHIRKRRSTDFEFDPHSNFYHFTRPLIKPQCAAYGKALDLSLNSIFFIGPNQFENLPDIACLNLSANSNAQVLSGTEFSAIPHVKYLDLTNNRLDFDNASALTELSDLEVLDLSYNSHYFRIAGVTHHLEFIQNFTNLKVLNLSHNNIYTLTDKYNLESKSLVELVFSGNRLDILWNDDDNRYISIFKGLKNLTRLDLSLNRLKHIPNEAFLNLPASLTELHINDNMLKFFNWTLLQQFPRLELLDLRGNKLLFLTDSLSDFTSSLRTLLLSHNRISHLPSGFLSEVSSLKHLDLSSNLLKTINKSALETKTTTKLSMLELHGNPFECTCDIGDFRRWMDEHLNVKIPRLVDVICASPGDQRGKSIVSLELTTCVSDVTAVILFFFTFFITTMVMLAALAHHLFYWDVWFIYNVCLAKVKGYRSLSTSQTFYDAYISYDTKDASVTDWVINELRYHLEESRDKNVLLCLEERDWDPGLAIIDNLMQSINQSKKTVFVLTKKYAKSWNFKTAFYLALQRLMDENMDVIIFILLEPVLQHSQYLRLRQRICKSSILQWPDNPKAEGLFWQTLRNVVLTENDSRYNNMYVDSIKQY
Method in brief: (§1)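 Cells seeded at 15000 (TLR7), 20,000 (TLR8) or 25,000 (TLR9) per well; compound 0.05 nM–50 μM, 30 min RT pre-incubation. Agonists: gardiquimod 7.5 μM, R848 15.9 μM, ODN2006 5 nM respectively. 22 h, 37 °C; SEAP via HEK-Blue Detection; % inhibition vs agonist+DMSO and known-inhibitor wells.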

human TLR9 = target: T2, human TLR9 (Homo sapiens, UniProt Q9NR96); assay: TLR9 inhibition reporter assay (HEK-Blue cells, secreted embryonic alkaline phosphatase reporter)
T2 construct: host or cells: HEK-Blue cells (HEK293-derived reporter line)
T2 sequence (Q9NR96 26-1032): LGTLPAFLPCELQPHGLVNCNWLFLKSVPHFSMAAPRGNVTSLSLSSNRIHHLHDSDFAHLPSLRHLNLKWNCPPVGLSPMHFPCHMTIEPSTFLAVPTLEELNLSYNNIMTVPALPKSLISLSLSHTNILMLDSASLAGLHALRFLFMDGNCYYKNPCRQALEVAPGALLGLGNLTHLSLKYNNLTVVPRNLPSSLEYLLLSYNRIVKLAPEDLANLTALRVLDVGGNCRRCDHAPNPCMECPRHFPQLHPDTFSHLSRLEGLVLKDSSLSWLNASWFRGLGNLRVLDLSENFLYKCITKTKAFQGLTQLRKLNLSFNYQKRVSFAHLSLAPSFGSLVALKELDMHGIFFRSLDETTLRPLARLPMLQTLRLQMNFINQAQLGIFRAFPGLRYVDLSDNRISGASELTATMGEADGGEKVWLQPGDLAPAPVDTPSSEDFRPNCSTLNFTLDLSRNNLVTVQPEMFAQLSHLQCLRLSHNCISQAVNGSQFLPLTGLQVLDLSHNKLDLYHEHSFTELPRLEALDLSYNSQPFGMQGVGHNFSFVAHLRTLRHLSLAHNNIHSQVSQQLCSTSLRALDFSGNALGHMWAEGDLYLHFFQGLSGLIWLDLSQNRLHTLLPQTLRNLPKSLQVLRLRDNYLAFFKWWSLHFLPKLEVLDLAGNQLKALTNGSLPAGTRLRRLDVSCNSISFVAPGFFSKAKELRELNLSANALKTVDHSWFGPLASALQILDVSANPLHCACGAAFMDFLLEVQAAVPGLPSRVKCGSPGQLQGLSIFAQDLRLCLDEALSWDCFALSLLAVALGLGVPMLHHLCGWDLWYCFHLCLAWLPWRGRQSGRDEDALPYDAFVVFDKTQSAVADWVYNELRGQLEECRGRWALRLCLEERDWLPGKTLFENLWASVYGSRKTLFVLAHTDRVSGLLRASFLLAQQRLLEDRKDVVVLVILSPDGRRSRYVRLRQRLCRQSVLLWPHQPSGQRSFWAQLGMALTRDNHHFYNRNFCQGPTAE
Method in brief: as §1

human TLR7 = target: T3, human TLR7 (Homo sapiens, UniProt Q9NYK1); assay: TLR7 inhibition reporter assay (HEK-Blue cells, secreted embryonic alkaline phosphatase reporter); conditions: HEK-Blue cells overexpressing human TLR7, stimulated with gardiquimod 7.5 μM; read-out: TLR 7 IC50
T3 construct: host or cells: HEK-Blue cells (HEK293-derived reporter line)
T3 sequence (Q9NYK1 27-1049): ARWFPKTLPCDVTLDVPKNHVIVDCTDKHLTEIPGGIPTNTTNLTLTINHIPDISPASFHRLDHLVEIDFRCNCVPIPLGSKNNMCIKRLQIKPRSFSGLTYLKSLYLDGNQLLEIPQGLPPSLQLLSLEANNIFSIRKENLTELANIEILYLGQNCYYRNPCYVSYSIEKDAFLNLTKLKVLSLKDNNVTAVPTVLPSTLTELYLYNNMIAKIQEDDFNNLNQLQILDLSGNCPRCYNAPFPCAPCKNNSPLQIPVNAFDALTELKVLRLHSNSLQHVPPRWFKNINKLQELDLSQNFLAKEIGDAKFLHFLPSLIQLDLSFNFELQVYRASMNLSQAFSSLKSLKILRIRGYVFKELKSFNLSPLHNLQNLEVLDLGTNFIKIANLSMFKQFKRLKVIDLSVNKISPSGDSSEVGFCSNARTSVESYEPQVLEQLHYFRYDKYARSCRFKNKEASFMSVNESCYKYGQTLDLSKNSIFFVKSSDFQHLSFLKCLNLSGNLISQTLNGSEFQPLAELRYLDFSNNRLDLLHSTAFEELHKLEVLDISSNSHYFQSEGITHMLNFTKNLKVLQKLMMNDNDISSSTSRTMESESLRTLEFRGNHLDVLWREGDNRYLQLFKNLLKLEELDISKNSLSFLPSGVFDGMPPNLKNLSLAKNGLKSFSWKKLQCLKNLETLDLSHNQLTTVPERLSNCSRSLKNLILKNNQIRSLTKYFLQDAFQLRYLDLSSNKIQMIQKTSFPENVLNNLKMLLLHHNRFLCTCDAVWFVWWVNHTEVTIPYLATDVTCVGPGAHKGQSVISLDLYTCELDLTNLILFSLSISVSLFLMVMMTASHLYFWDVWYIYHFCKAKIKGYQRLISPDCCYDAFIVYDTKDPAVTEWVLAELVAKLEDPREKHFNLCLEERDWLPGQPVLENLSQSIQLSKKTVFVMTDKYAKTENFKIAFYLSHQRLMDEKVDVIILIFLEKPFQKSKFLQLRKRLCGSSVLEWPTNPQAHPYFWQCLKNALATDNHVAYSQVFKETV
Method in brief: as §1

[1] = HEK-Blue cells overexpressing human TLR9, stimulated with ODN2006 5 nM, read-out: TLR 9 IC50
[2] = HEK-Blue human TLR9 reporter cells
[3] = HEK-Blue cells overexpressing human TLR9, stimulated with ODN2006 5 nM, 22 hour incubation, reporter readout

Structure (SMILES)	IC50 (human TLR8)	IC50 (human TLR9)	IC50 (human TLR9; [1])	IC50 (human TLR7)	IC50 (human TLR9; [2])	IC50 (human TLR9; [3])
Cn1c(-c2ccc(S(C)(=O)=O)cc2)nc2c(F)cc(C3CCN(C4CC5CCC(C4)N5C4CCOCC4)CC3)cc21 (single isomer, unassigned) [Example 289, 4-fluoro-1-methyl-2-(4-(methylsulfonyl)phenyl)-6-(1-(8-(tetrahydro-2H-pyran-4-yl)-8-azabicyclo[3.2.1]octan-3-yl)piperidin-4-yl)-1H-benzo[d]imidazole]	> 50 µM	–	0.029 µM	3.2 µM	0.029 µM	–
COc1ccc(-c2nc3c(C)cc(C4CCN(C5CCN(C6CC6)CC5)CC4)cc3n2C)cc1OC [Example 46, 6-(1′-cyclopropyl-[1,4′-bipiperidin]-4-yl)-2-(3,4-dimethoxyphenyl)-1,4-dimethyl-1H-benzo[d]imidazole tris(2,2,2-trifluoroacetate)]	> 50 µM	–	0.61 µM	18 µM	–	0.17 µM
COc1ccc(-c2nc3ccc(C4CCN(C5CCN(CC(C)C)CC5)CC4)cc3n2C(C)C)cc1OC [Example 30, 2-(3,4-dimethoxyphenyl)-6-(1′-isobutyl-[1,4′-bipiperidin]-4-yl)-1-isopropyl-1H-benzo[d]imidazole]	> 50 µM	–	0.254 µM	9.8 µM	–	0.25 µM
Cn1c(-c2ccc(S(C)(=O)=O)cc2)nc2c(F)cc(C3CCN(C4CC5CCC(C4)N5CC4CC4)CC3)cc21 (single isomer, unassigned) [Example 283, 6-(1-(8-(cyclopropylmethyl)-8-azabicyclo[3.2.1]octan-3-yl)piperidin-4-yl)-4-fluoro-1-methyl-2-(4-(methylsulfonyl)phenyl)-1H-benzo[d]imidazole]	> 50 µM	–	0.016 µM	4.7 µM	0.016 µM	–
COc1ccc(-c2nc3c(C)cc(C4CCN(C5CCN(CC(C)C)CC5)CC4)cc3n2C)cc1F [Example 54, 2-(3-fluoro-4-methoxyphenyl)-6-(1′-isobutyl-[1,4′-bipiperidin]-4-yl)-1,4-dimethyl-1H-benzo[d]imidazole]	> 50 µM	–	0.131 µM	7.7 µM	–	0.13 µM
Cc1ccc(CN2CCC(c3cc(C)c4nc(-c5ccc(S(C)(=O)=O)cc5)n(C)c4c3)CC2)cn1 [Example 419, 1,4-dimethyl-6-(1-((6-methylpyridin-3-yl)methyl)piperidin-4-yl)-2-(4-(methylsulfonyl)phenyl)-1H-benzo[d]imidazole]	8.4 µM	–	2.14 µM	2.3 µM	–	2.1 µM

Results, then the compound that gave them:

IC50 (human TLR8)	IC50 (human TLR9)	IC50 (human TLR9; [1])	IC50 (human TLR7)	IC50 (human TLR9; [2])	IC50 (human TLR9; [3])	Structure (SMILES)
> 50 µM	0.058 µM	0.058 µM	34.6 µM	–	–	COCCN1C2CCC1CC(N1CCC(c3cc4c(cc3F)nc(-c3ccc(S(C)(=O)=O)cc3)n4C)CC1)C2 (single isomer, unassigned) [Example 238, 5-fluoro-6-(1-(8-(2-methoxyethyl)-8-azabicyclo[3.2.1]octan-3-yl)piperidin-4-yl)-1-methyl-2-(4-(methylsulfonyl)phenyl)-1H-benzo[d]imidazole]
9.5 µM	–	0.334 µM	> 50 µM	–	0.33 µM	Cc1cc(-c2ccc(CN3CCC(N(C)C4CC4)CC3)cc2)cc2c1nc(-c1ccc(S(C)(=O)=O)cc1)n2C [Example 393, N-cyclopropyl-1-(4-(1,4-dimethyl-2-(4-(methylsulfonyl)phenyl)-1H-benzo[d]imidazol-6-yl)benzyl)-N-methylpiperidin-4-amine]
> 25 µM	0.03 µM	0.03 µM	9 µM	–	–	Cc1cc(C2CCN(C3CC4CCC(C3)N4CC3CC3)CC2)cc2c1nc(-c1ccc(S(C)(=O)=O)cc1)n2C (single isomer, unassigned) [Example 154, 6-(1-(8-(cyclopropylmethyl)-8-azabicyclo[3.2.1]octan-3-yl)piperidin-4-yl)-1,4-dimethyl-2-(4-(methylsulfonyl)phenyl)-1H-benzo[d]imidazole]
> 50 µM	–	–	7.3 µM	–	0.073 µM	CC(C)N1CCC(N2CCC(c3cc4c(cc3F)nc(-c3ccc(S(C)(=O)=O)cc3)n4C)CC2)CC1 [Example 96, 5-fluoro-6-(1′-isopropyl-[1,4′-bipiperidin]-4-yl)-1-methyl-2-(4-(methylsulfonyl)phenyl)-1H-benzo[d]imidazole]
> 50 µM	0.94 µM	0.937 µM	> 50 µM	–	–	COCCN1CCC(N2CCC(c3cc(F)c4c(c3)nc(-c3ccc(S(C)(=O)=O)cc3)n4C)CC2)CC1 [Example 208, 7-fluoro-5-(1′-(2-methoxyethyl)-[1,4′-bipiperidin]-4-yl)-1-methyl-2-(4-(methylsulfonyl)phenyl)-1H-benzo[d]imidazole]
